# In PubChem BioAssay AID602267 (Broad Institute, 2012):
# Activity calls are given as the source filed them.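 Rule for the calls: active = signal falls with dose and the fitted half-maximal concentration is at or below twice the top valid tested dose; inconclusive = flat curve with 30 to 70% inhibition, or poor fit; inactive = wrong direction, flat within 30%, or potency beyond limit.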
# Biological target: Golgi-associated PDZ and coiled-coil motif-containing protein (Homo sapiens) (UniProt Q9HD26)
# Assay: blockers of CAL PDZ ligand groove binding – biochemical, fluorescence polarization, untagged CAL PDZ, cherry-pick, dose response (AID 602267)
# Details: purified CAL PDZ, TMR-peptide fluorescence polarization, 1 h
row,SMILES,AC50
1,CCNc1ccc2noc3c2c1C(=O)c1ccccc1-3,4.74 µM
2,O=C(O)CSc1cc(NS(=O)(=O)c2ccc(Cl)cc2)c2ccccc2c1O,32.9 µM
3,CCOc1ccc2c(c1)C(NC(C)=O)C(=O)N2CCN1CCOCC1 (configuration not stated),> 100 µM (inactive)

# Same assay, conditions: purified CAL PDZ, TMR-peptide fluorescence polarization, 1 h; at 16 µM (top of the series)
row,SMILES,"activity change, negative = inhibition"
1,COCCCNC(=O)c1c[nH]c2ccc(S(=O)(=O)N3CCC(C)CC3)cc2c1=O,inactive

# Same assay, conditions: purified CAL PDZ, TMR-peptide fluorescence polarization, 1 h; at 50 µM (top of the series)
row,SMILES,"activity change, negative = inhibition"
1,O=C(NNC(=O)c1c(F)cccc1F)c1sccc1-n1cccc1,inactive
2,CCNS(=O)(=O)c1ccc(CCC(=O)N2CCCC2)cc1,inactive
3,O=P(O)(COc1ccccc1)COc1ccccc1,inactive
4,COc1cc([N+](=O)[O-])ccc1NC(=O)CN1CCN(C(=O)c2ccco2)CC1,inactive
5,CCc1nnc(NS(=O)(=O)c2ccc(NC(=O)CCC(=O)O)cc2)s1,inactive
6,COc1ccc(CNCCc2c[nH]c3ccccc23)c(OC)c1OC,inactive
7,C=CCOC(=O)C1=C(C)Nc2nc3ccccc3n2C1c1ccncc1 (configuration not stated),inactive
8,C(=N\N1CCOCC1)/c1nc(-c2ccccc2)n2ccccc12,inactive
9,Cc1ccc(NC(=O)N2CCCC2C(=O)NCC2CCCO2)cc1 (configuration not stated),inactive
10,COC(=O)C1CCN(C(=O)/C(C)=C\c2ccccc2)CC1,inactive
11,CS(=O)(=O)c1ccc2nc(NC(=O)CN3C(=O)C4CC=CCC4C3=O)sc2c1 (configuration not stated),inactive
12,CCOC(=O)Cn1ncn(-c2ccc(OC(F)(F)F)cc2)c1=O,inactive
13,c1ccc(C(c2ccccc2)c2cccnc2)cc1,inactive
14,CCN1CCN(S(=O)(=O)c2ccc(OC)c3ccccc23)CC1,inactive
15,COc1ccc(C(=O)Nc2nccs2)cc1,inactive
16,CCN(CC)CCC(=O)N1c2ccccc2CCc2ccc(NC(=O)OC(C)C)cc21,inactive
17,Cc1cccc(N=Nc2c(O)[nH]c3ccc(F)cc23)c1,inactive
18,COCC(=O)NNC(=O)c1ccc(OC)cc1,inactive
19,CC(=O)c1ccc(S(=O)(=O)N2CCN(c3ccccc3F)CC2)cc1,inactive
20,O=C1c2ccccc2C(=O)N1CSc1nnnn1-c1ccccc1,inactive
21,Cc1ccc(C(=O)Nc2ccccc2)cc1S(=O)(=O)N1CCN(C)CC1,inactive
22,Cc1nc2ccc(Br)cn2c1C(=O)N/N=C\c1ccc(C(C)C)cc1,inactive
23,O=C(c1ccccc1)C(CCc1ccccn1)CCc1ccccn1,inactive
24,O=C1OC(c2ccccc2)(c2ccccc2)c2ccccc21,inactive

row,SMILES,"activity change, negative = inhibition"
1,COc1cccc(CN2CCN(C3CSCCSC3)CC2CCO)c1 (configuration not stated),inactive
2,CC(=O)N1CCN(c2ccc(NC(=O)c3cccc(Cl)c3Cl)cc2)CC1,inactive
3,Cc1ccccc1CN(C)C(C)C(=O)Nc1ccccc1F (configuration not stated),inactive
4,CCN(CC(=O)Nc1cc(Cl)cc(Cl)c1)CC(=O)NC1CCS(=O)(=O)C1 (configuration not stated),inactive
5,O=C(OCc1ccc(Br)cc1)c1cccnc1,inactive
6,O=C(c1cccc(Oc2c(Cl)cccc2[N+](=O)[O-])c1)N1CCOCC1,inactive
7,COc1cc(C)cc(CN2CC=C(c3ccccc3)CC2)c1O,inactive
8,O=C(c1ccc([N+](=O)[O-])cc1)N1CCC(Cc2ccccc2)CC1,inactive
9,Fc1ccc(-n2c(-c3ccc4ccccc4n3)n[nH]c2=S)cc1Cl,inactive
10,COc1ccc(C(=O)c2ccc(C)cc2)c(OC)c1OC,inactive
11,CCC(=O)c1ccc(N2CCC(C)CC2)c(F)c1,inactive
12,O=C1CN=C(c2ccccc2)c2oc3ccc(Br)cc3c2N1,inactive
13,CCOCCCNC(=O)c1ccc2c(=O)n(Cc3ccc4c(c3)OCO4)c(=S)[nH]c2c1,inactive
14,O=C(NCCCn1ccnc1)c1ccccc1F,inactive
15,Cc1ccc2nc(NCc3ccc(F)cc3)c3nncn3c2c1,inactive
16,O=C(Nc1ccc(Cl)cc1)c1ccc(CN2CCc3ccccc3C2)cc1,inactive
17,O=C(NC1CCCN(Cc2ccc(Cl)cc2)C1)c1cccc(N2CCCC2=O)c1 (configuration not stated),inactive
18,CCN(CC)S(=O)(=O)c1ccc(/C=C/C(=O)OCC(=O)N(C)C)cc1,inactive
19,O=C(c1c(Cl)cccc1Cl)N1CCCCCC1,inactive
20,FC(F)(F)Oc1ccc(NC(=S)NCCCN2CCOCC2)cc1,inactive
21,CCOc1ccccc1N(CC(=O)Nc1cccc2ccccc12)S(C)(=O)=O,inactive
22,COc1ccc(C(=O)Nc2ccc(S(=O)(=O)N3CCCC3)cc2)cc1[N+](=O)[O-],inactive
23,Cc1ccc(CNC2CCCCC2)s1,inactive
24,CCN(CC)S(=O)(=O)c1ccc2nc(NC(=O)c3ccco3)sc2c1,inactive

row,SMILES,"activity change, negative = inhibition"
1,Cc1c(NC(=O)CN2CCC(C(N)=O)CC2)cccc1[N+](=O)[O-],inactive
2,N/C(=N\OC(=O)Cc1ccccc1[N+](=O)[O-])c1cccnc1,inactive
3,CCOC(=O)c1nc(NCCc2ccccc2)sc1C,inactive
4,CCc1ccc(C2CC(=O)N(c3cccc(F)c3)C3=C2C(=O)OC3)cc1 (configuration not stated),inactive
5,CCOC(=O)C1CCN(C(=O)C2CC(=O)N(c3ccc4c(c3)OCCO4)C2)CC1 (configuration not stated),inactive
6,O=C(NC(=S)NCCCN1CCOCC1)c1ccc(Br)cc1,inactive
7,O=C(CCN1C(=O)c2ccccc2C1=O)CN1CCOCC1,inactive
8,CN(c1nc(-c2ccc(Br)cc2)cs1)C1CCS(=O)(=O)C1 (configuration not stated),inactive
9,O=C(Nc1ccccc1Cl)Nc1cccnc1Cl,inactive
10,CCN(CC)CCn1c(SCC(=O)NCc2ccccc2)nc2c(sc3ccccc32)c1=O,inactive
11,C[n+]1ccc(C(=O)Nc2ccccc2Cl)cc1,inactive
12,CC(=O)Nc1cc(NC(C)=O)cc(C(=O)OCC(=O)Nc2ccc(S(=O)(=O)NC3=NCCCCC3)cc2)c1,inactive
13,Cc1[nH]c2ccccc2c1C(=O)CSc1nc2ncc(Cl)cc2[nH]1,inactive
14,O=C(NCCc1cnc[nH]1)c1cccs1,inactive
15,Cc1ccnc(SCC(=O)N2CCC(C(N)=O)CC2)n1,inactive
16,O=C(NCc1ccc(Cl)cc1)C(=O)NCC1OCCN1C(=O)c1ccc(Cl)cc1 (configuration not stated),inactive
17,Cc1cc(=O)n2c3ccccc3n(CC(O)CN3CCN(CCO)CC3)c2c1C#N (configuration not stated),inactive
18,Cc1sc(NC(=O)c2ccco2)c(C(Nc2ccccn2)c2ccccc2)c1C (configuration not stated),inactive
19,CO[C@H]1O[C@H](C)[C@@H](O)C[C@H]1NC(=O)OCc1ccccc1,inactive
20,CSc1ccccc1NC(=O)C1CC(c2c(F)cccc2Cl)=NO1 (configuration not stated),inactive
21,O=C(Cc1ccccc1)NN=C1CCCC1,inactive
22,COc1ccc(S(=O)(=O)N2CCOCC2)cc1NC(=O)CN1CCCCCC1,inactive
23,O=C(Nc1ccc([N+](=O)[O-])cc1)Nc1cnccn1,inactive
24,Cc1ccc2nc(NS(C)(=O)=O)sc2c1,inactive

row,SMILES,"activity change, negative = inhibition"
1,COC(=O)N/N=C/c1sc(N2CCCCC2)nc1-c1cccs1,inactive
2,CC(NS(=O)(=O)c1ccc(Cl)c(Cl)c1)C(=O)OCC(=O)Nc1ccc2c(c1)OCO2 (configuration not stated),inactive
3,O=C(C=Cc1ccccc1)c1cc(Br)ccc1O,inactive
4,CC(=O)Nc1ccc(Nc2ccc3nonc3c2[N+](=O)[O-])cc1,inactive
5,Brc1cccc(CNCC2CCCO2)c1 (configuration not stated),inactive
6,Cc1cc(SC2CCOC2=O)nc2ccccc12 (configuration not stated),inactive
7,COc1ccc(Cl)cc1C(=O)Nc1ccc2c(c1)OCCO2,inactive
8,COC(=O)C(C(=O)OC)c1ccc(N)cc1,inactive
9,CSC1=NP(=S)(SC)N2CCCC2=C1C#N (configuration not stated),inactive
10,CN(C)c1ccc(P(=O)(OC2CCCCC2)C(O)c2cccnc2)cc1 (configuration not stated),inactive
11,COc1ccc(/C=C2\N=C(c3ccc(C)cc3)OC2=O)cc1,inactive
12,O=C(c1ccccc1Cl)N(Cc1ccc(Cl)c(Cl)c1)N1C(=O)CCCC1=O,inactive
13,CC(=Nc1ccccc1O)c1sc2ccccc2c1O,inactive
14,CCOC(=O)c1ccc(NC(=S)N2CCCC(C(=O)N3CCCC3)C2)cc1 (configuration not stated),inactive
15,Cc1ccc(NC(=O)CN(C)C(=S)NC2CC2)cc1,inactive
16,c1cc(-c2nnc(-c3ccncc3)o2)ccn1,inactive
17,O=C(NCc1cccnc1)c1ccc(Cn2c(=S)[nH]c3ccc(Br)cc3c2=O)cc1,inactive
18,Cc1c(Cl)c(C(F)(F)F)nn1CC(=O)NCc1ccco1,inactive
19,Cc1ccc(SCC(=O)NCc2ccc(F)cc2)cc1,inactive
20,Cn1nc(C(=O)N2CCCc3ccccc32)c2ccccc2c1=O,inactive
21,C=CCN1C(=O)/C(=C/c2ccsc2)SC1=S,inactive
